Test results: US7514448B2, “Azaindoles useful as inhibitors of rock and other protein kinases” (Vertex Pharmaceuticals Incorporated, priority 2004, dated 2009)

Key:
Assay type in all cases: biochemical
[1] = target: PKA (Homo sapiens, UniProt P17612); test: PKA inhibition assay, coupled enzyme; conditions: average Ki if more than one determined
In short: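 Coupled PK/LDH assay following NADH depletion: 18 nM PKA, 50 μM ATP, 80 μM Kemptide in 100 mM HEPES pH 7.5, 10 mM MgCl2, 25 mM NaCl, 1 mM DTT, 3% DMSO, at 30 °C. Compound preincubated 10 min before ATP start; initial rates over 15 min, IC50 and Ki by non-linear regression.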

[2] = target: T1, Itk (Homo sapiens, UniProt Q08881); test: Itk inhibition assay, coupled enzyme; conditions: average Ki if more than one determined
T1 sequence (Q08881 1-620): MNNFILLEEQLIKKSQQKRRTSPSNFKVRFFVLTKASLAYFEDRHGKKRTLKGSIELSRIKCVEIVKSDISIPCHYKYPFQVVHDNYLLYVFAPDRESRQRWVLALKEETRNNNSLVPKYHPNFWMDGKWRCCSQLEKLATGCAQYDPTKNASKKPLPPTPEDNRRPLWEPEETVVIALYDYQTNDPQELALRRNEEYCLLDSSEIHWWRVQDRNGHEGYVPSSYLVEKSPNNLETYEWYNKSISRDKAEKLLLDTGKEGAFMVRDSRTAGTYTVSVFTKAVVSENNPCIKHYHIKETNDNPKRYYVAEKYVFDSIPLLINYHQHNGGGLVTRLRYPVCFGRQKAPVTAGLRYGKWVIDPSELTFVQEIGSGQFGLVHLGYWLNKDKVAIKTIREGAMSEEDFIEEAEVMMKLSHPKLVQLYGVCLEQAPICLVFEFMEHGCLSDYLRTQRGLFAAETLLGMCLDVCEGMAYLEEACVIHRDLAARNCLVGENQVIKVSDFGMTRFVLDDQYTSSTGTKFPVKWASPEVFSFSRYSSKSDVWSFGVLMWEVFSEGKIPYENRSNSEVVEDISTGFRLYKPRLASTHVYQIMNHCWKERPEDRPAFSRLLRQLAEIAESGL
Experimental: Compounds were screened for their ability to inhibit Itk using a standard coupled enzyme assay (Fox et al., Protein Sci., (1998) 7, 2249). Assays were carried out in a mixture of 20 mM MOPS (pH 7.0), 10 mM MgCl2, 0.1% BSA, 1 mM DTT, 2.5 mM phosphoenolpyruvate, 300 μM NADH, 30 μg/ml pyruvate kinase and 10 μg/ml lactate dehydrogenase. Final substrate concentrations in the assay were 100 μM ATP (Sigma Chemicals) and 3 μM peptide (Biotinylated SAM68 D332-443). Assays were carried out at 25° C. and in the presence of 100 nM Itk.
An assay stock buffer solution was prepared containing all of the reagents listed above, with the exception of ATP and the test compound of interest. 60 μl of the stock solution was placed in a 96 well plate followed by addition of 2 μl of DMSO stock containing serial dilutions of the test compound (typically starting from a final concentration of 15 μM). The plate was preincubated for 10 minutes at 25° C. and the reaction initiated by addition of 5 μl of ATP. Initial reaction rates were determined with a Molecular Devices SpectraMax Plus plate reader over a 10 minute time course. IC50 and Ki data were calculated from non-linear regression analysis using the Prism software package (GraphPad Prism version 3.0cx for Macintosh, GraphPad Software, San Diego Calif., USA).

[3] = target: ROCK (Homo sapiens, UniProt Q13464); test: ROCK radioactive assay ("33P"); conditions: radioactive assay; average Ki if more than one determined; read-out: ROCK 33P Ki
Excerpt: (§1) If more than one value of Ki has been determined, the average Ki is indicated. If no value is indicated, then the Ki was not determined.

[4] = target: ROCK I (AA 6-553) (Homo sapiens, UniProt Q13464); test: ROCK inhibition assay, coupled enzyme system ("Enzyme"); conditions: enzyme-linked assay; average Ki if more than one determined
Experimental: Reactions were carried out in a solution containing 100 mM HEPES (pH 7.5), 10 mM MgCl2, 25 mM NaCl, 2 mM DTT and 1.5% DMSO.
as §1

ROCK, sequence (Q13464 whole entry): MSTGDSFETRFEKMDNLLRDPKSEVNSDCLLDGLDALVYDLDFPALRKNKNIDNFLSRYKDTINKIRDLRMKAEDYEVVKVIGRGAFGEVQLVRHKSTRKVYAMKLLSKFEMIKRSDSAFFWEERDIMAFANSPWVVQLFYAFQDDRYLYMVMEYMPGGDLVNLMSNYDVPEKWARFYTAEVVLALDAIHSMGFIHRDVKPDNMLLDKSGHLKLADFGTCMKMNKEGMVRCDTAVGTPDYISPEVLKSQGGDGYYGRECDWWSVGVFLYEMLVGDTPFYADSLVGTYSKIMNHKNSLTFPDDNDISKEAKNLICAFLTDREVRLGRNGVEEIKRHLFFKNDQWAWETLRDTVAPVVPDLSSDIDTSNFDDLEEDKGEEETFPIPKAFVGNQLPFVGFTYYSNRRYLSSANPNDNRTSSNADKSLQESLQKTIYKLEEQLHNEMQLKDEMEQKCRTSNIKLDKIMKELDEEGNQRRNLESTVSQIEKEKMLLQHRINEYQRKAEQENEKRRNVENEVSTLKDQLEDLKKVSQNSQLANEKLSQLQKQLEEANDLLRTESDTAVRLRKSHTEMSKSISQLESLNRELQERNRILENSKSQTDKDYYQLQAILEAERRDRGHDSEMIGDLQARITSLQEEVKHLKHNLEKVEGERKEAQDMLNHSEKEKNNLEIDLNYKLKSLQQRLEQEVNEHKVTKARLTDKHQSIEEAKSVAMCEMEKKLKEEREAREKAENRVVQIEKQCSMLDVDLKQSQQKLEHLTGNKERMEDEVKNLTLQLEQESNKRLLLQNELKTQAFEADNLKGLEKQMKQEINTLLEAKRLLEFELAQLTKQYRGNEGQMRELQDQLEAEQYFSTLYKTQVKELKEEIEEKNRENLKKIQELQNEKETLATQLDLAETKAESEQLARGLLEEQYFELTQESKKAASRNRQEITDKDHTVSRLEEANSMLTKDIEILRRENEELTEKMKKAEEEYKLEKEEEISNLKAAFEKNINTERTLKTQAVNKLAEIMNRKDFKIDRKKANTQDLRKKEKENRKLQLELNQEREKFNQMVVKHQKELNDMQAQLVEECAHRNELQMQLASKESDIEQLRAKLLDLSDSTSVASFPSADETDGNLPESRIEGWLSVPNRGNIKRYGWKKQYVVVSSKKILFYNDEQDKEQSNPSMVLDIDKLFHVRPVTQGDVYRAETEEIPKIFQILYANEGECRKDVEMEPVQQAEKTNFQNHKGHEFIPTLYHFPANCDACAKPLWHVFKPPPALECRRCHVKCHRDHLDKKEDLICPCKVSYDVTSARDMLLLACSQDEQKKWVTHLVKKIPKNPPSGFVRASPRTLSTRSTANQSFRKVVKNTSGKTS
ROCK I (AA 6-553), sequence (Q13464 6-553, species assumed): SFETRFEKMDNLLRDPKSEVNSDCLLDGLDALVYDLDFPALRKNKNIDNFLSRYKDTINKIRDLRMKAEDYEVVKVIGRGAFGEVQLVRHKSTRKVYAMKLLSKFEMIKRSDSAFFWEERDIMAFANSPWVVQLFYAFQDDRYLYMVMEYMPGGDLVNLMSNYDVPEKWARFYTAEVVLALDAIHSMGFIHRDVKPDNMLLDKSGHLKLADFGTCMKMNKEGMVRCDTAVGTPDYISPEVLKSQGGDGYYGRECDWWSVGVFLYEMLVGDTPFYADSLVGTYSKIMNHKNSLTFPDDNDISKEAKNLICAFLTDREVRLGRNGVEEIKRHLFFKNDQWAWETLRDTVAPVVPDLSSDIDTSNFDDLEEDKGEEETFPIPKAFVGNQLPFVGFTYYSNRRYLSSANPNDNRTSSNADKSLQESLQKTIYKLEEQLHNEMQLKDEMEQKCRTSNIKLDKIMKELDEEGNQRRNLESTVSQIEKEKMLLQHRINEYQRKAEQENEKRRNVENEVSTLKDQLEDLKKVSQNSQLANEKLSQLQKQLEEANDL

Structure (SMILES) | Ki [1] | Ki [2] | Ki [3] | Ki [4]
O=C(Nc1nc(-c2c[nH]c3ncc(Br)cc23)cs1)C1CC1 [II-247] | 500 to 5000 nM | 500 to 5000 nM | < 500 nM | –
CN1CCN(CCOc2ccc(CC(=O)Nc3nc(-c4c[nH]c5ncccc45)cs3)c(Cl)c2)CC1 [II-109] | 500 to 5000 nM | – | < 500 nM | < 500 nM
O=C(Cc1ccc(Br)cc1)Nc1nc(-c2c[nH]c3ncc(Br)cc23)cs1 [II-250] | < 500 nM | 500 to 5000 nM | – | –
O=C(CCOc1ccccc1)Nc1nc(-c2c[nH]c3ncc(Br)cc23)cs1 [II-254] | 500 to 5000 nM | 500 to 5000 nM | < 500 nM | –
O=C(Cc1ccc(F)cc1F)Nc1nc(-c2c[nH]c3ncc(F)cc23)cs1 [II-122] | < 500 nM | – | < 500 nM | < 500 nM
CS(=O)(=O)Nc1cccc(CC(=O)Nc2ccc(-c3c[nH]c4ncccc34)s2)c1 [II-128] | < 500 nM | – | < 500 nM | < 500 nM
COc1cccc(CC(=O)Nc2ccc(-c3c[nH]c4ncccc34)s2)c1 [II-127] | < 500 nM | – | < 500 nM | < 500 nM
O=C(CCc1ccccc1)N(c1nc(-c2c[nH]c3ncccc23)cs1)C1CC1 [II-54] | < 500 nM | 500 to 5000 nM | – | < 500 nM
CCN(C(=O)CC1CCCC1)c1nc(-c2c[nH]c3ncc(Br)cc23)cs1 [II-256] | – | 500 to 5000 nM | – | –
O=C(Nc1nc(-c2c[nH]c3ncc(Br)cc23)cs1)C1CCOC1 (centres unmarked) [II-252] | 500 to 5000 nM | 500 to 5000 nM | < 500 nM | –
CS(=O)(=O)Nc1cccc(CC(=O)Nc2nc(-c3c[nH]c4ncc(F)cc34)cs2)c1 [II-120] | < 500 nM | – | < 500 nM | < 500 nM
O=C(Cc1ccc(OCCCN2CCNCC2)cc1Cl)Nc1nc(-c2c[nH]c3ncccc23)cs1 [II-110] | 500 to 5000 nM | – | < 500 nM | < 500 nM
O=C(NCC1CCNCC1)c1nc(-c2c[nH]c3ncc(-c4ccccc4)cc23)cs1 [II-245] | 500 to 5000 nM | 500 to 5000 nM | < 500 nM | –
O=C(Cc1ccc(F)cc1)N(c1nc(-c2c[nH]c3ncccc23)cs1)C1CC1 [II-53] | < 500 nM | 500 to 5000 nM | – | < 500 nM
O=C(Cc1ccccc1)Nc1nc(-c2c[nH]c3ncc(F)cc23)cs1 [II-118] | < 500 nM | – | < 500 nM | < 500 nM
COc1cccc(CC(=O)Nc2nc(-c3c[nH]c4ncc(F)cc34)cs2)c1 [II-119] | < 500 nM | – | < 500 nM | < 500 nM
O=C(CCNC(=O)OCc1ccccc1)Nc1nc(-c2c[nH]c3ncc(Br)cc23)cs1 [II-255] | 500 to 5000 nM | 500 to 5000 nM | – | –
O=C(CCC1CCCCC1)Nc1nc(-c2c[nH]c3ncc(Br)cc23)cs1 [II-251] | < 500 nM | 500 to 5000 nM | 500 to 5000 nM | –
CN1CCN(CCCNS(=O)(=O)c2cccc(CC(=O)Nc3nc(-c4c[nH]c5ncccc45)cs3)c2)CC1 [II-125] | < 500 nM | – | < 500 nM | < 500 nM
